Columns and labels:
[1] = target: T1, bc1 complex (complex III) (Eikenella corrodens, UniProt V7IIL5); assay: polarographic O2 uptake (Clark electrode), succinate oxidase of membranes; assay type: biochemical; conditions: succinate as substrate, 34 °C; read-out is the whole succinate respiration
T1 construct: gene HMPREF1177_00380; native complex in isolated membrane particles, not purified; with Ubiquinol-cytochrome c reductase iron-sulfur subunit; Cytochrome c1
T1 sequence (V7IIL5 1-530): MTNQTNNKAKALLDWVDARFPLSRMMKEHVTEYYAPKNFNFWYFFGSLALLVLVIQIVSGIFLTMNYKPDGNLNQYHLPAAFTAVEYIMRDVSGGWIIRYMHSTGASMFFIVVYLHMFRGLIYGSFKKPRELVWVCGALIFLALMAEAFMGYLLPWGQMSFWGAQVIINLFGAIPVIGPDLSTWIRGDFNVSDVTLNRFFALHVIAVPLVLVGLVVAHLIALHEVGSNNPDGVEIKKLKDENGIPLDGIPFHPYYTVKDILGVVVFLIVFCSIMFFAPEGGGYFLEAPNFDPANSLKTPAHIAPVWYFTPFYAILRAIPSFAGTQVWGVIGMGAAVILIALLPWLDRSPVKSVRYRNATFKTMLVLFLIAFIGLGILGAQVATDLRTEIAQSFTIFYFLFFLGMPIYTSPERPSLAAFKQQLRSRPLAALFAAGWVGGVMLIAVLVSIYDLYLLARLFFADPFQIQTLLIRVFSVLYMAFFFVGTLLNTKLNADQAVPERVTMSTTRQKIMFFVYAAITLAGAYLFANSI
T1 sequence (V7IHH9 1-197 partner): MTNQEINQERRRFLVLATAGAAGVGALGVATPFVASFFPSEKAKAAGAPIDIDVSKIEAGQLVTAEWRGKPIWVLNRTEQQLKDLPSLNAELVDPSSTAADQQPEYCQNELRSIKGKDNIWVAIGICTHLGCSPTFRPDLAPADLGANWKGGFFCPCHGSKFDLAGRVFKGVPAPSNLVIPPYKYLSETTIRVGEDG

[2] = target: T2, dissimilatory nitrate reductase, Nar (Eikenella corrodens, UniProt V7IBI8); assay: oxidation of reduced methyl viologen at […] nm, membranes; assay type: biochemical; conditions: 1 mM dithionite-reduced methyl viologen, 2 mM nitrate, pH 7.4, anaerobic
T2 construct: gene HMPREF1177_02096; with Respiratory nitrate reductase beta subunit; Respiratory nitrate reductase gamma subunit
T2 sequence (V7IA22 entry or part of it): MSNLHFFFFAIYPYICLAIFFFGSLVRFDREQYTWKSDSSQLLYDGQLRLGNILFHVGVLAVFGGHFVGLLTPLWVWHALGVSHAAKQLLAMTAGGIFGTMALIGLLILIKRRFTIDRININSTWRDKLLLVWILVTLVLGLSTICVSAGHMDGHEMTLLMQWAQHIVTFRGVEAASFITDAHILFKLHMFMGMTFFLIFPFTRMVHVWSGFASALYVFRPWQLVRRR
T2 sequence (V7IBP6 entry or part of it, further chain): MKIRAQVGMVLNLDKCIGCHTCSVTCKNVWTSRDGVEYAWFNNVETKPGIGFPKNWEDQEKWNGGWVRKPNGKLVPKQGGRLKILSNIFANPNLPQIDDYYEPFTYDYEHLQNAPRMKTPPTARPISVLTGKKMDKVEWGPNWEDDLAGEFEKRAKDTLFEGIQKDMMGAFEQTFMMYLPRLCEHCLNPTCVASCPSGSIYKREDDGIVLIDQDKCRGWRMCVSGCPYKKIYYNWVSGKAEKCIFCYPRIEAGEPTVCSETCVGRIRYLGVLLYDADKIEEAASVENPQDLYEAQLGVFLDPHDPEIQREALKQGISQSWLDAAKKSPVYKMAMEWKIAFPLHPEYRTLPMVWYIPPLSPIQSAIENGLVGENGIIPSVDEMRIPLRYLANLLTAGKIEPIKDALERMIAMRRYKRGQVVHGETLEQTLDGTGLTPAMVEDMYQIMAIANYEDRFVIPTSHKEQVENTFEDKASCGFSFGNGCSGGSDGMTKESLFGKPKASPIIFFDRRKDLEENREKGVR
T2 sequence (V7IBI8 entry or part of it): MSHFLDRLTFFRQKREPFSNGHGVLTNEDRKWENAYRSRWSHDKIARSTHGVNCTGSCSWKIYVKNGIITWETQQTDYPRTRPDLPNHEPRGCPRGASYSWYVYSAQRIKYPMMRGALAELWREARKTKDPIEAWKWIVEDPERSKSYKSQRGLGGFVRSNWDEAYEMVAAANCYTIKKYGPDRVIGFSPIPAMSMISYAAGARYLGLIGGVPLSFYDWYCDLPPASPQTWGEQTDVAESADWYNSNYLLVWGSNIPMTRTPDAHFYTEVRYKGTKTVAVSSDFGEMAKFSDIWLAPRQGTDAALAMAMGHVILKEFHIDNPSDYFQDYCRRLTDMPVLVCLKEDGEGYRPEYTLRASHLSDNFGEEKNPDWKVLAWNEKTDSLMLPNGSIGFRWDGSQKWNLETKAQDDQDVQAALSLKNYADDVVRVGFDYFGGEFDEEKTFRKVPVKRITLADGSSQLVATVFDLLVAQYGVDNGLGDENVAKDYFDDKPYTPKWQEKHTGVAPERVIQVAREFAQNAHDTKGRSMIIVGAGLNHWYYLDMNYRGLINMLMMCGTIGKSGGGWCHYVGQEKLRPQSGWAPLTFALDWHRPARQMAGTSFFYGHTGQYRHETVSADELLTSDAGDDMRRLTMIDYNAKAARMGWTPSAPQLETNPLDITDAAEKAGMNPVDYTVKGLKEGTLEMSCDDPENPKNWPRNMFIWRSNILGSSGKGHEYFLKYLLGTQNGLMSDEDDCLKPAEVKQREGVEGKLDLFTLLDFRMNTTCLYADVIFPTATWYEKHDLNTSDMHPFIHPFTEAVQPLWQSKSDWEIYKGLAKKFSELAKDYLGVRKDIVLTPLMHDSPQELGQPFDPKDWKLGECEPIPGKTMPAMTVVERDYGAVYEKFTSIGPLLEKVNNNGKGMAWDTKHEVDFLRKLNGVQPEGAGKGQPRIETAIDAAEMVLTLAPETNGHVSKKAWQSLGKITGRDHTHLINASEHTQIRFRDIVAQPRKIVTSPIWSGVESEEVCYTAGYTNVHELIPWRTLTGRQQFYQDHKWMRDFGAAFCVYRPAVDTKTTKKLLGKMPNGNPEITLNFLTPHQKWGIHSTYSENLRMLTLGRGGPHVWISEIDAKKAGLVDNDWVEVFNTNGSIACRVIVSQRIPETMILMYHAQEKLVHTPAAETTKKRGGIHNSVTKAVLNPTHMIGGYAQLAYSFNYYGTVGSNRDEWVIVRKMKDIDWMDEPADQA

Row | Compound | IC50 [1] [µM] | oxidation of reduced methyl viologen at 600 nm, membranes [2]
1 | CCCCCCCc1cc(O)c2ccccc2[n+]1[O-] [HQNO, 2-heptyl-4-hydroxyquinoline-N-oxide] | 40 | –
2 | O=[N+]([O-])O [nitrate] | – | The reaction was started by the injection of an anaerobic solution of potassium nitrate
3 | antimycin A3 | 20 | –

— article PMC8076288, “Effect of respiratory inhibitors and quinone analogues on the aerobic electron transport system of Eikenella corrodens” (Scientific Reports, 2021)
